Each block holds one compound with its values, some of them ahead of it. Active and inactive are the calls of the source.
Key:
Escherichia coli = test: microbe, parasite or virus in culture
[1] = target: T1, Low molecular weight phosphotyrosine protein phosphatase (Homo sapiens, UniProt P24666); assay type: functional; conditions: read-out: IC50_Mean;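 note: Dose-response confirmation assay measuring inhibition of LMPTP enzyme activity by fluorescence intensity read-out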
T1 sequence (P24666 whole entry): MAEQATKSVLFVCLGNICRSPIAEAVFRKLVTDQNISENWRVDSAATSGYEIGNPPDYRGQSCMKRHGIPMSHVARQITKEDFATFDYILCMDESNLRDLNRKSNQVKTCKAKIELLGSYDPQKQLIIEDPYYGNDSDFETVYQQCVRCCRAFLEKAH

[2] = target: DNA (cytosine-5)-methyltransferase 1 (Homo sapiens, UniProt P26358); test: inhibition of DNA methylation by DNMT1 – biochemical, fluorescent molecular beacon, confirmation (AID 602386); assay type: functional
Melanocortin receptor 4 = Melanocortin receptor 4 (Homo sapiens, UniProt P32245); assay type: functional, cell-based;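 note: Cell-based assay with luminescence read-out, confirmatory dose-response testing for agonist activity of biased ligands at MC4R; human U2OS cells with tagged receptor and beta-arrestin; potency of agonists that increase receptor coupling to beta-arrestin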
H9c2 = test: cells; assay type: functional, cell-based; conditions: Rattus norvegicus, H9c2, Myocardium;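 note: confirmatory concentration-response retest of ultra-high-throughput screening hits for modulation of myocardial damage; cell death induced by hydrogen peroxide oxidative stress; compound pretreatment for 60 min then peroxide exposure for 2 h; potency is for protecting the cells against peroxide damage rather than for killing them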
Interleukin-8 = target: T2, Interleukin-8 (Homo sapiens, UniProt P10145); test: Dose Response confirmation of uHTS small molecule hits for cystic fibrosis induced NFkb Inhibitors in a PAF-induced IL8 counterscreen.; assay type: functional; conditions: read-out: IC50_Mean
T2 sequence (P10145 whole entry): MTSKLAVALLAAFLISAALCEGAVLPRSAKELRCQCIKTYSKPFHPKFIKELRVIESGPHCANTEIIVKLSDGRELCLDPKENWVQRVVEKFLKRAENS

[3] = target: T3, Heat shock factor protein 1 (Mus musculus, UniProt P38532); test: decrease of HSF1-responsive luciferase luminescence – cell-based, NIH3T3, dose retest, confirmation (AID 2382); assay type: functional;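 note: NIH3T3 fibroblasts with HSF1-driven luciferase reporter stressed by proteasome inhibitor MG132; luminescence from HSF1-driven luciferase expression after 8 hours of MG132 stress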
T3 sequence (P38532 whole entry): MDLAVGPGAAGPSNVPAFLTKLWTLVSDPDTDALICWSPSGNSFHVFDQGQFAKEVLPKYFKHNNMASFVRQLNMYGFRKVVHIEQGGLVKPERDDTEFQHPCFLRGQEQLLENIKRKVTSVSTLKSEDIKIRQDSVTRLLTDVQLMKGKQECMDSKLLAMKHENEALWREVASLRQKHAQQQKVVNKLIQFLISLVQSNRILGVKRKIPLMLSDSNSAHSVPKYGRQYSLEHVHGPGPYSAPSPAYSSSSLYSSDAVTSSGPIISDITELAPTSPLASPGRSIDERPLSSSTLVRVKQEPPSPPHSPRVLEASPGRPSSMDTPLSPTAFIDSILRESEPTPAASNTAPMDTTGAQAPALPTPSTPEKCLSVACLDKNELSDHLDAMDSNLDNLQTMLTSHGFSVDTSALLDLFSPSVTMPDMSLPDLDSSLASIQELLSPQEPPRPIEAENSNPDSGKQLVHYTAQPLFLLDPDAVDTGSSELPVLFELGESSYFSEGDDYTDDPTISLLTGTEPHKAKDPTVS

[4] = Late stage assay provider results from the probe development effort to identify inhibitors of the Plasmodium falciparum M17 Leucine Aminopeptidase (M17LAP): radiolabel-based cell-based dose response assay to identify compounds that inhibit P. falciparum growth in RBCs Set 2.; assay type: functional
[5] = target: T4, Apoptotic protease-activating factor 1 (Homo sapiens, UniProt O14727); test: SAR analysis of small molecule Activators of Apaf-1 in a Fluorescent assay.; assay type: functional; conditions: read-out: EC50_Mean;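 note: caspase-3 cleavage of fluorogenic Rh110 DEVD substrate downstream of apoptosome activation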
T4 sequence (O14727 whole entry): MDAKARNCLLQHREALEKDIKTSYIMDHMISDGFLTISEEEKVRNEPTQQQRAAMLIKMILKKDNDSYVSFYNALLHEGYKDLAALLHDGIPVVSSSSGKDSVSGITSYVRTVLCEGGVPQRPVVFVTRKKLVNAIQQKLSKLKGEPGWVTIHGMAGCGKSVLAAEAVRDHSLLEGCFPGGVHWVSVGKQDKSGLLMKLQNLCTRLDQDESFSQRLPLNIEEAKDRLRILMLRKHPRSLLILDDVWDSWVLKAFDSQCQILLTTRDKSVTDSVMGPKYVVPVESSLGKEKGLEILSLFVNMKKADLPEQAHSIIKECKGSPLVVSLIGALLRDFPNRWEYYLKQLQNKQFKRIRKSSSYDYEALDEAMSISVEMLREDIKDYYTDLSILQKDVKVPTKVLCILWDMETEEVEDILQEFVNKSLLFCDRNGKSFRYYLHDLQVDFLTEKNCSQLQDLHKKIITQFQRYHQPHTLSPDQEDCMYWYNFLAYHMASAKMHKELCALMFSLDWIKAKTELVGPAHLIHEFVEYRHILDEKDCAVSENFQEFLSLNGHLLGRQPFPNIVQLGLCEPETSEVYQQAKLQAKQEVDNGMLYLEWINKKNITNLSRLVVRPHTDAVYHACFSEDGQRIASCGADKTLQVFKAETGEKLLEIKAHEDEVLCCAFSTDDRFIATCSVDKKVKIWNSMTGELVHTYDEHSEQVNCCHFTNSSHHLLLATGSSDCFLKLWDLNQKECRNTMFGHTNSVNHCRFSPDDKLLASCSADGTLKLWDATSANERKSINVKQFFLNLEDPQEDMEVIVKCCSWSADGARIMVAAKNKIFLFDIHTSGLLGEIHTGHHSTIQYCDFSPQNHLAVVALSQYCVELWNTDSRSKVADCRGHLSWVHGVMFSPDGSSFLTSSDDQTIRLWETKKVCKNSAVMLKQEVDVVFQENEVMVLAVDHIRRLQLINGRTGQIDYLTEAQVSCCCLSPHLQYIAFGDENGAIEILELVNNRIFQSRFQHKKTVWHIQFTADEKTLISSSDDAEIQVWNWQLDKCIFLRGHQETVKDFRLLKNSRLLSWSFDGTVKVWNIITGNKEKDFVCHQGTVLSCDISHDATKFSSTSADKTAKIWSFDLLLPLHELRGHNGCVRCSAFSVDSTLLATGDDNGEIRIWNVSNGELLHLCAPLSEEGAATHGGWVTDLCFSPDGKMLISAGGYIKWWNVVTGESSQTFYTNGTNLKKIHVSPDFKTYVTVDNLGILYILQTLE

[6] = target: T5, Methionyl-tRNA synthetase, putative (Trypanosoma brucei brucei, UniProt Q38C91); assay type: functional, Trypanosoma brucei brucei strain 927/4 GUTat10.1
T5 sequence (Q38C91 whole entry): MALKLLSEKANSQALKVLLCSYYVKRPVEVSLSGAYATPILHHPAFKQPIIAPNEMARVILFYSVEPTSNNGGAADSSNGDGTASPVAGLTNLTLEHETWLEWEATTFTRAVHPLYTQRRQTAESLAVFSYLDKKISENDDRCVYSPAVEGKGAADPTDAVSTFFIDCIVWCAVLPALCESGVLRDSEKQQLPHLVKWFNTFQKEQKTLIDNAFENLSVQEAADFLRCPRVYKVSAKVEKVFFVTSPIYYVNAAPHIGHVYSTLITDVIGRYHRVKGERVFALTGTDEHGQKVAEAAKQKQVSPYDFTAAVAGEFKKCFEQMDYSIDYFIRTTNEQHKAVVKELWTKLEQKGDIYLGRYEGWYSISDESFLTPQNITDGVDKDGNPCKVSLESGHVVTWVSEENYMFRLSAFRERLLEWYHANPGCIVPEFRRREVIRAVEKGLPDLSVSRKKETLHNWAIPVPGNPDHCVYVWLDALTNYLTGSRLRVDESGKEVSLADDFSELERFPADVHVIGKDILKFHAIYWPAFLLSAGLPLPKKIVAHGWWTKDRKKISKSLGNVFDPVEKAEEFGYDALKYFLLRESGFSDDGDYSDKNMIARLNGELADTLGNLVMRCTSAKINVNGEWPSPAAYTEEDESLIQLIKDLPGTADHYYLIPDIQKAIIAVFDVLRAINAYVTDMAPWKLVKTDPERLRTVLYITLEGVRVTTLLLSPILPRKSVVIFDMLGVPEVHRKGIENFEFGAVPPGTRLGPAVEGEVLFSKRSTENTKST

[7] = Counterscreen for inhibitors of Trypanosoma brucei methionyl tRNA synthetase (MetRS): Luminescence-based cell-based high throughput dose response assay to identify compounds that are cytotoxic to Jurkat human T lymphocyte cells.; assay type: functional
[8] = target: T5, Methionyl-tRNA synthetase, putative; assay type: functional, Trypanosoma brucei brucei strain 927/4 GUTat10.1; remark: listed apart in the source
[9] = target: T6, Ubiquitin-conjugating enzyme E2 N (Homo sapiens, UniProt P61088); assay type: functional;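 note: Dose-response confirmation in a TR-FRET assay detecting UBC13-driven polyubiquitin chain formation, inhibition measured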
T6 sequence (P61088 whole entry): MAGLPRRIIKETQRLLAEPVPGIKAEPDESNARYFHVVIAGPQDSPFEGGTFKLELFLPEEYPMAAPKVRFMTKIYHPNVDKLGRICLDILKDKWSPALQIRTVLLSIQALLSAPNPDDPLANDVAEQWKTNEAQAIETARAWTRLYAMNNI

[10] = target: T7, Sentrin-specific protease 8 (Homo sapiens, UniProt Q96LD8); assay type: functional
T7 sequence (Q96LD8 whole entry): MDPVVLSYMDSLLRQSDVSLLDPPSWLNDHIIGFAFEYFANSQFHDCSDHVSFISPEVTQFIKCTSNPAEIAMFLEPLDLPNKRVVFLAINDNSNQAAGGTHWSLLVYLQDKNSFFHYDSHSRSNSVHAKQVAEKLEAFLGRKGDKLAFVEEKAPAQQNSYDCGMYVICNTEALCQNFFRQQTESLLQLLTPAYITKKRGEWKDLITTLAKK

[11] = target: T7, Sentrin-specific protease 8; assay type: functional; remark: listed apart in the source

Melanocortin receptor 4, sequence (P32245 whole entry): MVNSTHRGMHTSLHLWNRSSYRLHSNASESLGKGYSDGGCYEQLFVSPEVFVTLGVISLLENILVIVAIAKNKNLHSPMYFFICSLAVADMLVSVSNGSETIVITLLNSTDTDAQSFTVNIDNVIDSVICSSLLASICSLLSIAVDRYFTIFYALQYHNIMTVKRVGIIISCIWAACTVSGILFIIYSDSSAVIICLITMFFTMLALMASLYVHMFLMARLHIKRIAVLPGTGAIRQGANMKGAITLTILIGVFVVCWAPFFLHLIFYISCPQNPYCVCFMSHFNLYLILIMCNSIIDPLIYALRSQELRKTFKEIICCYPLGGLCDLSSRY
DNA (cytosine-5)-methyltransferase 1, sequence (P26358 whole entry): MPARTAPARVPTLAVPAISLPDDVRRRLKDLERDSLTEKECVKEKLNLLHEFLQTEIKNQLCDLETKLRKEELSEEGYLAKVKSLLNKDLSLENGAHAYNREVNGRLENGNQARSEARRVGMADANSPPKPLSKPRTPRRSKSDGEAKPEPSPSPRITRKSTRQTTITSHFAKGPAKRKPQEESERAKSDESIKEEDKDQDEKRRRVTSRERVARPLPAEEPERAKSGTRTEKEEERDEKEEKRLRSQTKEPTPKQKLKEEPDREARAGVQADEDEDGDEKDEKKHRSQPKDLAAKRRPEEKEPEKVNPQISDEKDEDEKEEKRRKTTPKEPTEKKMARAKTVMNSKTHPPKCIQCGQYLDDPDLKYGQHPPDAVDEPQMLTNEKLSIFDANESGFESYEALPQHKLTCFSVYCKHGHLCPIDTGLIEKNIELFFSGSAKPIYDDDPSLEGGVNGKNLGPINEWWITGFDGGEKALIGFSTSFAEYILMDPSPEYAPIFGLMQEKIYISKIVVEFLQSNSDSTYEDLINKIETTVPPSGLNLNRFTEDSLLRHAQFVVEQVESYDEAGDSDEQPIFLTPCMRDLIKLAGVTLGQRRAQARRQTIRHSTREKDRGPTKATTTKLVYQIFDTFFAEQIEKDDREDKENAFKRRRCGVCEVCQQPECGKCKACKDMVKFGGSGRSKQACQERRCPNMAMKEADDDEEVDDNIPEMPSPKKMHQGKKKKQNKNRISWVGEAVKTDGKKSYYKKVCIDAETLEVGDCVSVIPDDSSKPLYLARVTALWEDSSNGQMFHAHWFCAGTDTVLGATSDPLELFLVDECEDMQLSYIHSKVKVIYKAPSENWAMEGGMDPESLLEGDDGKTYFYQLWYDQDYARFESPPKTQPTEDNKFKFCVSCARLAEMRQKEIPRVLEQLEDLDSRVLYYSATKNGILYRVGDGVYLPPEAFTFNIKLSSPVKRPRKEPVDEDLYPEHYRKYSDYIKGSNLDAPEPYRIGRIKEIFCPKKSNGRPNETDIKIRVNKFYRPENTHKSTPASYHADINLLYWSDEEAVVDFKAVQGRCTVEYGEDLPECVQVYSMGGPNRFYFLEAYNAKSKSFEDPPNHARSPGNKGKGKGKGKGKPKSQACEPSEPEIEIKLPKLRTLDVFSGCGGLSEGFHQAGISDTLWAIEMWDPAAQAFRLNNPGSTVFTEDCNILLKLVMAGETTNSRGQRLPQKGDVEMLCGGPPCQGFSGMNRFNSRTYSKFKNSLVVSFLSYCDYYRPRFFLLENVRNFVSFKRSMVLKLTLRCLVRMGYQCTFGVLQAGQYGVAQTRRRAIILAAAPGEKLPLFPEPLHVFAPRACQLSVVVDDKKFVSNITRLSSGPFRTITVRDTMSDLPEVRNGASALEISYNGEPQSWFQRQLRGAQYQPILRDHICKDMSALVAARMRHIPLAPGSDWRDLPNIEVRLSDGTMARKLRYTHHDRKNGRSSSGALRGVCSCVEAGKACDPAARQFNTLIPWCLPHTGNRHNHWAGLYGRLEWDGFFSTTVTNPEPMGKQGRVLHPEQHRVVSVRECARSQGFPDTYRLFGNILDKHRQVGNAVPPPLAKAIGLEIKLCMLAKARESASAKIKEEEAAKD

SMILES: CCn1cc(C(=O)O)c(=O)c2cc(F)c(N3CCN(C(=S)NC(=O)c4ccc(F)c(F)c4)CC3)cc21
AC50 (Escherichia coli): 3.38 µM (active)
IC50 [1]: 16.6 µM (active)

IC50 [2]: 6.09 µM (active)
SMILES: CC(=O)c1cccc(OCC(=O)N(C)CC(=O)NCc2ccco2)c1

EC50 (Melanocortin receptor 4): > 89.2 µM (inactive)
SMILES: CCOc1ccc(Cn2c3ccc(OC)cc3c3nc4ccccc4nc32)cc1

SMILES: CCOc1ccc(-n2c(C)c(C(C)=O)c3cc(OC(C)=O)ccc32)cc1
IC50 (H9c2): 9.08 µM (active)
IC50 (Interleukin-8): > 79 µM (inactive)
EC50 [3]: 24.6 µM (active)

EC50 (Melanocortin receptor 4): > 89.2 µM (inactive)
SMILES: Cc1cc(C)c2sc(N(CCCN(C)C)C(=O)c3ccc(Br)s3)nc2c1

SMILES: CC(C)COc1ccc(CC(=O)NO)cc1
IC50 [4]: 7.4 µM (active)

EC50 [5]: > 100 µM (inactive)
SMILES: COC(=O)c1coc(-c2ccc(-c3ccccc3)cc2)n1

EC50 [5]: > 100 µM (inactive)
SMILES: Cc1cc(C)n(CC(C)C(=O)Nc2ccc(Cl)c(Cl)c2)n1 (stereo not drawn)

SMILES: O=C(Cc1ccc2c(c1)CCCC2)NO
IC50 [4]: 5.5 µM (active)

SMILES: O=C(CC(=O)Nc1cccc(Cl)c1)N/N=C\c1ccccc1
IC50 [6]: 6.25 µM (active)
IC50 [7]: 83.3 µM (inactive)
IC50 [8]: 3.94 µM (active)

SMILES: COc1cc2c(c(OC)c1OC)-c1ccc(O)c(=O)cc1[C@@H](N)CC2
IC50 [9]: > 20 µM (inactive)
IC50 [10]: 25.7 µM (active)
IC50 [11]: > 100 µM (inactive)

— ChEMBL document CHEMBL1201862, “PubChem BioAssay data set” (2004)
